From ChEMBL document CHEMBL1201862, “PubChem BioAssay data set” (2004)
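Interpolation was linear, between the two tested concentrations surrounding the appropriate level; five concentrations were tested over 48 hours in 96-well plates. The concentration for 50% growth inhibition is given as GI50.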 Activity calls are given as the source filed them. Cut-off read from the data, not from the text of the source: active = GI50 up to about 1.1 µM and inactive = higher.

Columns and labels:
Assay in all cases: NCI anticancer screen, dose series, 48 h
KM-20L2 = system: KM-20L2
HOP-92 = system: HOP-92
SK-MEL-5 = system: SK-MEL-5
UACC-62 = system: UACC-62
ACHN = system: ACHN
RPMI-8226 = system: RPMI-8226
UACC-257 = system: UACC-257
HOP-62 = system: HOP-62
SNB-78 = system: SNB-78
IGROV-1 = system: IGROV-1
SF-268 = system: SF-268
SNB-19 = system: SNB-19
U-251 = system: U-251
M14 = system: M14
K562 = system: K562
SF-539 = system: SF-539
LOX IMVI = system: LOX IMVI
OVCAR-5 = system: OVCAR-5
RXF 393 = system: RXF 393
HCT-116 = system: HCT-116
COLO 205 = system: COLO 205
DMS-273 = system: DMS-273
HOP-18 = system: HOP-18
OVCAR-4 = system: OVCAR-4
HCC 2998 = system: HCC 2998
MOLT-4 = system: MOLT-4
SR = system: SR
OVCAR-3 = system: OVCAR-3
RXF 631 = system: RXF 631
HL-60 = system: HL-60
DMS-114 = system: DMS-114
A549 = system: A549
SN12C = system: SN12C
HT-29 = system: HT-29
SF-295 = system: SF-295
CCRF-CEM = system: CCRF-CEM
LXFL 529 = system: LXFL 529
TK-10 = system: TK-10
SNB-75 = system: SNB-75
NCI-H460 = system: NCI-H460
EKVX = system: EKVX
Malme-3M = system: Malme-3M
CAKI-1 = system: CAKI-1
SK-OV-3 = system: SK-OV-3
KM12 = system: KM12
NCI-H23 = system: NCI-H23
DLD-1 = system: DLD-1
UO-31 = system: UO-31
786-0 = system: 786-0
NCI-H226 = system: NCI-H226
HCT-15 = system: HCT-15
A498 = system: A498
SK-MEL-2 = system: SK-MEL-2
SW-620 = system: SW-620
SK-MEL-28 = system: SK-MEL-28
NCI-H522 = system: NCI-H522
M19-MEL = system: M19-MEL
OVCAR-8 = system: OVCAR-8

In the case of `Cc1ccc(C)c(NC(=O)C(=O)CC(=O)c2cccc3ccccc23)c1`, the GI50 (KM-20L2) is reported as > 100 µM (inactive), the GI50 (HOP-92) is reported as > 100 µM (inactive) and the GI50 (SK-MEL-5) is reported as > 100 µM (inactive). The GI50 (UACC-62) was > 100 µM (inactive), the GI50 (ACHN) was > 100 µM (inactive) and the GI50 (RPMI-8226) was > 100 µM (inactive). The GI50 (UACC-257) was > 100 µM (inactive), the GI50 (HOP-62) was > 100 µM (inactive) and the GI50 (SNB-78) was > 100 µM (inactive). The GI50 (IGROV-1) was > 100 µM (inactive), the GI50 (SF-268) was > 100 µM (inactive) and the GI50 (SNB-19) was > 100 µM (inactive). The GI50 (U-251) was > 100 µM (inactive), the GI50 (M14) was > 100 µM (inactive) and the GI50 (K562) was > 100 µM (inactive). For the same compound, the GI50 (SF-539) was > 100 µM (inactive), the GI50 (LOX IMVI) was > 100 µM (inactive) and the GI50 (OVCAR-5) was > 100 µM (inactive). For the same compound, the GI50 (RXF 393) was > 100 µM (inactive), the GI50 (HCT-116) was > 100 µM (inactive) and the GI50 (COLO 205) was > 100 µM (inactive). The GI50 (DMS-273) was > 100 µM (inactive), the GI50 (HOP-18) was > 100 µM (inactive) and the GI50 (OVCAR-4) was > 100 µM (inactive). For the same compound, the GI50 (HCC 2998) was > 100 µM (inactive), the GI50 (MOLT-4) was > 100 µM (inactive) and the GI50 (SR) was > 100 µM (inactive). The GI50 (OVCAR-3) was > 100 µM (inactive), the GI50 (RXF 631) was > 100 µM (inactive) and the GI50 (HL-60) was > 100 µM (inactive). The GI50 (DMS-114) was > 100 µM (inactive), the GI50 (A549) was > 100 µM (inactive) and the GI50 (SN12C) was > 100 µM (inactive). For the same compound, the GI50 (HT-29) was > 100 µM (inactive), the GI50 (SF-295) was > 100 µM (inactive) and the GI50 (CCRF-CEM) was > 100 µM (inactive). The GI50 (LXFL 529) was > 100 µM (inactive), the GI50 (TK-10) was > 100 µM (inactive) and the GI50 (SNB-75) was > 100 µM (inactive). For the same compound, the GI50 (NCI-H460) was > 100 µM (inactive), the GI50 (EKVX) was > 100 µM (inactive) and the GI50 (Malme-3M) was > 100 µM (inactive). For the same compound, the GI50 (CAKI-1) was > 100 µM (inactive), the GI50 (SK-OV-3) was > 100 µM (inactive) and the GI50 (KM12) was > 100 µM (inactive). For the same compound, the GI50 (NCI-H23) was > 100 µM (inactive), the GI50 (DLD-1) was > 100 µM (inactive) and the GI50 (UO-31) was > 100 µM (inactive). For the same compound, the GI50 (786-0) was > 100 µM (inactive), the GI50 (NCI-H226) was > 100 µM (inactive) and the GI50 (HCT-15) was greater than 100 µM. For the same compound, the GI50 (A498) was > 100 µM (inactive), the GI50 (SK-MEL-2) was > 100 µM (inactive) and the GI50 (SW-620) was > 100 µM (inactive). The GI50 (SK-MEL-28) was > 100 µM (inactive), the GI50 (NCI-H522) was > 100 µM (inactive) and the GI50 (M19-MEL) was > 100 µM (inactive). For the same compound, the GI50 (OVCAR-8) was > 100 µM (inactive).
